{
  "source": "patent US11912686B2",
  "about": "(Gilead Sciences, Inc., priority 2020, dated 2024)",
  "data": [
    {"molecular_target": "human LPAR1 (Homo sapiens (Human), UniProt Q92633)", "sequence (Q92633 whole entry)": "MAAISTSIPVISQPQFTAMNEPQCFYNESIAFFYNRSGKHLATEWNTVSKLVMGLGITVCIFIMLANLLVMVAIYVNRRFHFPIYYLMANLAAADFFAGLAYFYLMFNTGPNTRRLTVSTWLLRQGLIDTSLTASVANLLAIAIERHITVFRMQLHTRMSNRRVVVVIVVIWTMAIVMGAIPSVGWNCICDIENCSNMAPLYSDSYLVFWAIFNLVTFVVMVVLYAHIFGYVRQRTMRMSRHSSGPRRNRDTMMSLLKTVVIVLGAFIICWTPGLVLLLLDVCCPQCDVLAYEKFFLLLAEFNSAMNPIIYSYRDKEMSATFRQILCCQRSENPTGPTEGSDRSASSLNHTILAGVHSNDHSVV", "assay": "LPAR1 intracellular calcium mobilization assay (antagonist mode, FLIPR)", "format": "cell-based", "conditions": "CHO-K1 EDG2 cells expressing human LPAR1, LPA 18:2 at EC80 (100 nM), test compound 0.5 nM to 10 μM", "units": {"EC50": "nM"}, "values": [
      {"compound": "C[C@@H](OC(=O)Nc1c(-c2ccc(NC(=O)C3(C(F)(F)F)CC4(CCC4)C3)cn2)nnn1C)c1cccnc1Cl", "note": "[Compound 78, (R)-1-(2-chloropyridin-3-yl)ethyl (1-methyl-4-(5-(2-(trifluoromethyl)spiro[3.3]heptane-2-carboxamido)pyridin-2-yl)-1H-1,2,3-triazol-5-yl)carbamate]", "EC50": 83.6},
      {"compound": "C[C@@H](OC(=O)Nc1c(-c2ccc(NC(=O)C3(C#N)CC4(CCC4)C3)cn2)nnn1C)c1cccnc1Cl", "note": "[Compound 79, (R)-1-(2-chloropyridin-3-yl)ethyl (4-(5-(2-cyanospiro[3.3]heptane-2-carboxamido)pyridin-2-yl)-1-methyl-1H-1,2,3-triazol-5-yl)carbamate]", "EC50": 16},
      {"compound": "C[C@@H](OC(=O)Nc1c(-c2ccc(NC(=O)C3CC4(CC(C#N)C4)C3)cn2)nnn1C)c1cccnc1Cl", "note": "(stereo partly drawn) [Compound 80, (R)-1-(2-chloropyridin-3-yl)ethyl (4-(5-(6-cyanospiro[3.3]heptane-2-carboxamido)pyridin-2-yl)-1-methyl-1H-1,2,3-triazol-5-yl)carbamate]", "EC50": 109},
      {"compound": "C[C@@H](OC(=O)Nc1c(-c2ccc(NC(=O)C3CC4(CC(F)C4)C3)cn2)nnn1C)c1cccnc1Cl", "note": "(stereo partly drawn) [Compound 81, (R)-1-(2-chloropyridin-3-yl)ethyl (4-(5-(6-fluorospiro[3.3]heptane-2-carboxamido)pyridin-2-yl)-1-methyl-1H-1,2,3-triazol-5-yl)carbamate]", "EC50": 22.8},
      {"compound": "C[C@@H](OC(=O)Nc1c(-c2ccc(NC(=O)C34CC(Cl)(C3)C4)cn2)nnn1C)c1cccnc1Cl", "note": "[Compound 82, (R)-1-(2-chloropyridin-3-yl)ethyl (4-(5-(3-chlorobicyclo[1.1.1]pentane-1-carboxamido)pyridin-2-yl)-1-methyl-1H-1,2,3-triazol-5-yl)carbamate]", "EC50": 20.4},
      {"compound": "C[C@@H](OC(=O)Nc1c(-c2ccc(NC(=O)C3CC(=O)C3)cn2)nnn1C)c1cccnc1Cl", "note": "[Compound 83, (R)-1-(2-chloropyridin-3-yl)ethyl (1-methyl-4-(5-(3-oxocyclobutane-1-carboxamido)pyridin-2-yl)-1H-1,2,3-triazol-5-yl)carbamate]", "EC50": 344},
      {"compound": "C[C@@H](OC(=O)Nc1c(-c2ccc(NC(=O)C3CC(C)(C)C3)cn2)nnn1C)c1cccnc1Cl", "note": "[Compound 84, (R)-1-(2-chloropyridin-3-yl)ethyl (4-(5-(3,3-dimethylcyclobutane-l-carboxamido)pyridin-2-yl)-1-methyl-1H-1,2,3-triazol-5-yl)carbamate]", "EC50": 14.5},
      {"compound": "C[C@@H](OC(=O)Nc1c(-c2ccc(NC(=O)[C@H]3C[C@@]4(CC4(F)F)C3)cn2)nnn1C)c1cccnc1Cl", "note": "[Compound 85, (R)-1-(2-chloropyridin-3-yl)ethyl (4-(5-((3R,5r)-1,1-difluorospiro[2.3]hexane-5-carboxamido)pyridin-2-yl)-1-methyl-1H-1,2,3-triazol-5-yl)carbamate]", "EC50": 11.2},
      {"compound": "C[C@@H](OC(=O)Nc1c(-c2ccc(NC(=O)[C@H]3C[C@]4(CC4(F)F)C3)cn2)nnn1C)c1cccnc1Cl", "note": "[Compound 86, (R)-1-(2-chloropyridin-3-yl)ethyl (4-(5-((3S,5s)-1,1-difluorospiro[2.3]hexane-5-carboxamido)pyridin-2-yl)-1-methyl-1H-1,2,3-triazol-5-yl)carbamate]", "EC50": 16.6},
      {"compound": "C[C@@H](OC(=O)Nc1c(-c2ccc(NC(=O)C3(C#N)CC4(CC4)C3)cn2)nnn1C)c1cccnc1Cl", "note": "[Compound 87, (R)-1-(2-chloropyridin-3-yl)ethyl (4-(5-(5-cyanospiro[2.3]hexane-5-carboxamido)pyridin-2-yl)-1-methyl-1H-1,2,3-triazol-5-yl)carbamate]", "EC50": 16.1},
      {"compound": "C[C@@H](OC(=O)Nc1c(-c2ccc(NC(=O)C3CC4(CC4)C3)cn2)nnn1C)c1cccnc1Cl", "note": "[Compound 88, (R)-1-(2-chloropyridin-3-yl)ethyl (1-methyl-4-(5-(spiro[2.3]hexane-5-carboxamido)pyridin-2-yl)-1H-1,2,3-triazol-5-yl)carbamate]", "EC50": 8.6}
    ]}
  ]
}
